How the values were obtained:
[1] = molecular target: T1, 5-Lipoxygenase from RBL-1 20,000xg Supernatant (Rattus norvegicus, UniProt P12527); assay: 5-lipoxygenase inhibitory activity, 20,000 xg supernatant from homogenized RBL-1 cells; format: biochemical; conditions: radiolabeled arachidonic acid, triplicate
T1 construct: 20,000 xg supernatant from 1.5 million homogenized RBL-1 cells; endogenous in cells; host or cells: RBL-1 cells (20,000 xg supernatant of homogenate)
T1 sequence (P12527 1-673): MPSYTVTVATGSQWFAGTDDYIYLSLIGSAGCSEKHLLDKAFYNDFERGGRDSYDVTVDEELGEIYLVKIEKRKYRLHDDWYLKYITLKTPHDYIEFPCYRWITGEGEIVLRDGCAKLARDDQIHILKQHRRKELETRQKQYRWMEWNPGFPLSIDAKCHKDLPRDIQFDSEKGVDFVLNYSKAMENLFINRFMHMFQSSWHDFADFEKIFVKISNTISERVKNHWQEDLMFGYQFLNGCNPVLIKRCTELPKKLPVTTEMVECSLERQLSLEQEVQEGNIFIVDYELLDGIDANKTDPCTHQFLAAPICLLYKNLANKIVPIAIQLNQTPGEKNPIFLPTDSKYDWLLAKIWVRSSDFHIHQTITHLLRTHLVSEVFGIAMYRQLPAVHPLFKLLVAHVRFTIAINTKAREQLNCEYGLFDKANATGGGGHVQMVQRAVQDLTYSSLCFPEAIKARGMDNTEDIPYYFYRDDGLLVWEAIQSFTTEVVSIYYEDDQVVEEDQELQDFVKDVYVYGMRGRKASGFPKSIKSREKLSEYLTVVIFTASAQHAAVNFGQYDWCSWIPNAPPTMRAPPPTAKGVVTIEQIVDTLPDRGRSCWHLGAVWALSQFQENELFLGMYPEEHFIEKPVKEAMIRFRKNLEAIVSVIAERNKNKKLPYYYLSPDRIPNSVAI
Experimental: Assays to determine 5-lipoxygenase inhibitory activity of representative compounds of the present invention were performed in […] incubations containing the 20,000 xg supernatant from 1.5 million homogenized RBL-1 cells and various concentrations of the test compound. Reactions were initiated by addition of radiolabeled arachidonic acid and terminated by acidification and ether extraction. Reaction products were separated from nonconverted substrate by thin layer chromatography and measured by liquid scintillation spectroscopy. All incubations are performed in triplicate. Inhibition of 5-lipoxygenase activity was calculated as the ratio of the amount of product formed in the presence and absence of inhibitor. […] (Dyer, R. D.; Haviv, F.; Hanel, A. M.; Bornemier, D. A.; Carter, G. W. Fed. Proc., Fed. Am. Soc. Exp. Biol. 1984, 43, 1462A).

[2] = system: Leukotrienes (biosynthesis); assay: Inhibition of leukotriene biosynthesis in vivo after oral administration, rat peritoneal anaphylaxis model; conditions: 1 h, gavage one hour prior to antigen challenge, read-out: Percent Inhibition of Leukotrienes; for inhibition in vivo at 200 µmol/kg: Oral Dose at 200 μmol/kg; for inhibition in vivo at 100 µmol/kg: Oral Dose at 100 μmol/kg; for inhibition in vivo at 30 µmol/kg: Oral Dose at 30 μmol/kg
Experimental: Inhibition of the biosynthesis of leuktrienes in vivo after oral administration of compound was determined using a rat peritoneal anaphylaxis model in a similar manner as that described by Young and coworkers (Young, P. R.; Dyer, R. D.; Carter, G. W. Fed. Proc., Fed. Am. Soc. Exp. Biol. 1985, 44, 1185). In this model rats were injected intraperitoneally (ip) with rabbit antibody to bovine serum albumin (BSA) and three hours later injected ip with BSA to induce an antgen-antibody response. Rats were sacrificed 15 minutes after this challenge and the peritoneal fluids were collected and analyzed for leukotriene levels. Test compounds were administered by gavage one hour prior to the antigen challenge. Percent inhibition values were determined by comparing the treatment group to the mean of the control group.

SMILES	IC50 [1] [nM]	inhibition in vivo at 200 µmol/kg [2] [%]	inhibition in vivo at 100 µmol/kg [2] [%]	inhibition in vivo at 30 µmol/kg [2] [%]
CC(C#CC1CCCCC1)N(O)C(N)=O (centres unmarked) [Example 8, N-Hydroxy-N-[4-cyclohexyl-3-butyn-2-yl]urea]	1900	41		
NC(=O)N(O)CC#Cc1cccc(Oc2ccc(F)cc2)c1 [Example 44, N-Hydroxy-N-[3-[3-(4-fluorophenoxy)phenyl]-2-propynyl]urea]	400		99	
CC(C#Cc1ccccc1)N(O)C(N)=O (centres unmarked) [Example 1, N-Hydroxy-N(4-phenyl-3-butyn-2-yl)urea]	2400	98		
CCc1ccc(C#CC(C)N(O)C(=O)NC)cc1 (centres unmarked) [Example 25, N-Hydroxy-N-[4-(4-ethylphenyl)-3-butyn-2-yl]-N'-methylurea]	400		69	
NC(=O)N(O)CC#Cc1ccccc1 [Example 32, N-Hydroxy-N,(3,phenyl-2-propynyl)urea]	5900		97	
CC(C#Cc1ccc(Br)cc1)N(O)C(N)=O (centres unmarked) [Example 17, N-Hydroxy-N-[4-(4-bromophenyl)-3-butyn-2-yl]urea]	800	98		
CC(C#Cc1cccc(Oc2ccncc2)c1)N(O)C(N)=O (centres unmarked) [Example 46, N-Hydroxy-N-[4-[3-(4-pyridinyloxy)phenyl]-3-butyn-2-yl]urea]	1200		98	
CC(C)c1ccc(C#CC(C)N(O)C(N)=O)cc1 (centres unmarked) [Example 22, N-Hydroxy-N-[4-[4-(1-methylethyl)phenyl]-3-butyn-2-yl]urea]	400		86	
CC(C#Cc1cccc(Oc2cccc(Cl)n2)c1)N(O)C(N)=O (centres unmarked) [Example 68, N-Hydoxy-N-[4-[3-(6-chloropyridin-2-yloxy)phenyl]-3-butyn-2-yl]urea]	200			61
COc1ccc(Oc2cccc(C#CCN(O)C(N)=O)c2)cc1 [Example 39]	600		96	
Cc1cccc(Oc2cccc(C#CC(C)N(O)C(N)=O)c2)n1 (centres unmarked) [Example 67, N-Hydroxy-N-[4-[3-(6-methylpyridin-2-yloxy)phenyl]-3-butyn-2-yl]urea]	300			56
CC(C#Cc1ccc(F)cc1)N(O)C(N)=O (centres unmarked) [Example 21, N-Hydroxy-N-[4,(4-fluorophenyl)-3-butyn-2-yl]urea]	2100		90	
CC(C#Cc1cccc(Oc2nccs2)c1)N(O)C(N)=O (centres unmarked) [Example 66, N-Hydroxy-N-[4-[3-(2-thiazolyloxy)phenyl]-3-butyn-2-yl]urea]	500			40
CC(C#Cc1ccoc1)N(O)C(N)=O (centres unmarked) [Example 34, N-Hydroxy-N-[4-(3-furyl)-3-butyn-2-yl]urea]	7000		96	
NC(=O)N(O)CC#Cc1cccc(Oc2ccccc2)c1 [Example 33, N-Hydroxy-N-[3-(3-phenoxyphenyl)-2-propynyl]urea]	500		99	
CC(C#Cc1ccc(Oc2ccc(F)cc2)o1)N(O)C(N)=O (centres unmarked) [Example 57, N-hydroxy-N-{4-[5-(4-fluorophenoxy)-2-furyl]-3-butyn-2-yl}urea]	200			83
CC(C#Cc1cccc(Oc2ccc(F)cc2)c1)N(O)C(N)=O (centres unmarked) [Example 43, N-Hydroxy-N-[4-[3-(4-fluorophenoxy)phenyl]-3-butyn-2-yl]urea]	300		98	
CC(C#CCSc1ccccc1)N(O)C(N)=O (centres unmarked) [Example 4, N-Hydroxy-N-(5phenylthio-3-pentyn-2-yl)urea]	400	64		
CC(C#Cc1ccc(Cl)cc1)N(O)C(N)=O (centres unmarked) [Example 19, N-Hydroxy-N-[4-(4-chlorophenyl)-3-butyn-2-yl]urea]	400		82	
Cc1ccc(Oc2ccc(C#CC(C)N(O)C(N)=O)o2)cc1 (centres unmarked) [Example 62, N-hydroxy-N-{4-[5-(4-methylphenoxy)-2-furyl]-3-butyn-2-yl}urea]	300			65
CC(C#CCCCc1ccccc1)N(O)C(N)=O (centres unmarked) [Example 11, N-Hydroxy,N-(7-phenyl-3-heptyn-2-yl)urea]	700	99		
Cc1ccc(Oc2cccc(C#CCN(O)C(N)=O)c2)cc1 [Example 36, N-Hydroxy-N-[3-[3-(4-methylphenoxy)phenyl]-2-propynyl]urea]	600		99	
